In brackets after ≈: the same amount, converted by molar mass. Like-named read-outs stand apart in the source and are kept apart here.
Legend:
corpus of stomach = assay: Gastric cytoprotection effect (lesion length / ulcer index after oral 0.2N NaOH); format: in vivo; settings: 1 h, 30 min before oral 0.2N NaOH, lesion measured one hour later, read-out: Gastric cytoprotection effect ED50 (dose reducing the sore to 50% of control)
From the text: Gastric cytoprotection effect
Gastric cytoprotection effect was studied according to the method by A. Robert (Gastroenterology, 77(3), 443, (1979)). Thirty min. after oral administration of the compound according to the invention, 0.2N NaOH was orally applied to the animals.
One hour later, the animals were killed under anesthesia by chloroform. The stomach was removed and fixed in a solution of 5% formalin. After fixation, the stomach was cut along the greater curvature. A total length of the lesion appearing on the corpus of stomach was then measured and served as an ulcer index.
The dose of the compound which may reduce the sore to 50% of that of the control was designated as ED50.
The gastric cytoprotection effects of the compounds according to the invention, which is thus represented by ED50, are summarized in Table 1.

platelet aggregation = assay: Inhibiting effect of platelet aggregation (ADP-induced, human platelet-rich plasma); format: cell-based; settings: human PRP, compound added one minute before ADP
Description: Inhibiting effect of platelet aggregation
The blood taken from a human median cubital vein was centrifuged at 800 rpm for 10 min. and a supernatant thereof was used as a platelet-rich plasma (PRP). An aliquot of PRP thus obtained was put into a small tube, to which […] (ADP) was added to induce platelet aggregation. The extent of aggregation was determined by detecting a change in turbidity of the aliquot by an apparatus for measuring platelet aggregation (Rika-Denki, Tokyo). The compound was added one minute before the addition of ADP. The concentration of the compound which may reduce the platelet aggregation, 50% of the control was designated as IC50.

gastric acid secretion [1] = assay: Inhibiting effect of gastric acid secretion, pylorus-ligated rat (Shay); format: in vivo; settings: pylorus ligation, injected into duodenum, 5 hours
Description: (§1) Inhibiting effect of gastric acid secretion
Under anesthesia by ether, the abdomen of the rat was incised in its median and a pylorus was ligated with silk thread according to Shay (Gastroenterology 5, 43 (1945)). Simultaneously, the compound was injected into a duodenum of the rat and then the incision was closed.
Five hours later, the median-incision of the abdomen was again performed and the esophargus was ligated and then the whole stomach was removed.
The stomach was cut along a greater curvature and the contents thereof was transferred into a graduated centrifuge tube. After centrifugation at 3,000 rpm for 10 min., a volume of a gastric juice was measured and a part of its supernatant was titrated to pH 7 with 0.1N NaOH using a pH-stat (Radio meter).
The mean dose of the compounds which may reduce the volume of gastric juice (ml) and acidity (mEq/ml) of a group of five animals to 50% of that of the controls were designated respectively as ED50.

gastric acid secretion [2] = assay: Inhibiting effect of gastric acid secretion, perfused stomach, pentagastrin-stimulated (Ghosh & Schild); format: in vivo, male SD rat; settings: urethane-anesthetized SD rat, pentagastrin 0.05 μg/kg/min, injected through femoral vein; ratio of area index to that of PGE2
Description: as §1
A male SD rat was incised in the abdomen under anesthesia by urethane and the lumen of a stomach was perfused with a physiolosical saline solution through a double-cannula inserted into a lumen of the stomach. A pH of a draining gastric acid was monitored using a pH-meter (M. Ghosh, H. Schild, Br. J. Pharmacol. 13, 54 (1958)). The secretion of gastric acid was stimulated by a continuous infusion of the pentagastrin at a rate of 0.05 μg/kg/min. When the pH of gastric acid became stable value of about 4, the compound was injected through a femoral vein. As an index of the inhibiting effect of gastric acid secretion by the compound was calculated from the area surrounded by the curve drawn by the time course of the pH of gastric acid, from the point increase by the injection of the compound and to the point it came back to baseline. The index thus obtained was compared to that of PGE2 and a ratio therebetween was shown in Table 3, as a relative effect of the compound.

[3] = test system: blood pressure of the carotid; assay: Hypotensive effect (carotid blood pressure, anesthetized rat); format: in vivo; settings: chloralose-anesthetized Wistar male rat, injected via catheter connected to femoral artery; read-out: Hypotensive effect ED25 (dose reducing blood pressure by 25 mmHg)
Description: A catheter was inserted to a carotid of the Wistar male rat under chloralose anesthesia. Another end of the catheter was connected to a polygraph with a pressure-transducer to detect a blood pressure of the carotid. The compound was injected via catheter connected to a femoral artery. The dose of the compound which may reduce the blood pressure in an amount of 25 mmHg was designated as ED25.

[4] = acidity (mEq/ml) to 50% of controls, read-out: Inhibiting effect of gastric acid secretion ED50, Acidity
[5] = volume (ml) to 50% of controls, read-out: Inhibiting effect of gastric acid secretion ED50, Volume of the gastric juice

| SMILES | IC50 (platelet aggregation) [ng/mL] | ED50 (corpus of stomach) [µg/kg] | ED50 (gastric acid secretion [1]; [4]) [µg/kg] | ED50 (gastric acid secretion [1]; [5]) [µg/kg] | Inhibiting effect of gastric acid secretion, Relative effect (PGE2 = 1) (gastric acid secretion [2]) | ED (25 mmHg) [3] [µg/kg] |
| --- | --- | --- | --- | --- | --- | --- |
| CCCCC[C@H](O)/C=C/[C@@H]1[C@H]2c3cccc(OCC(=O)O)c3O[C@H]2C[C@H]1O (relative stereo) [Compound 156, 2,5,6,7-Tetranor-4-oxa-4,8-inter-m-phenylene PGI2] | 0.56 (≈ 1.49 nM) | 11.3 | 2330 | 330 | 39 | 0.46 |
| CCCCC(C)[C@H](O)/C=C/[C@@H]1[C@H]2c3cccc(OCC(=O)O)c3O[C@H]2C[C@H]1O (relative stereo) [Compound 208, 16-Methyl-2,5,6,7-tetranor-4-oxa-4,8-inter-m-phenylene PGI2] | 0.47 (≈ 1.2 nM) | 0.92 | 270 | 140 | 45 | 0.074 |
| O=C(O)COc1cccc2c1O[C@H]1C[C@@H](O)[C@H](/C=C/[C@@H](O)C3CCCC3)[C@@H]21 (relative stereo) [Compound 230, 15-cyclopentyl-2,5,6,7,16,17,18,19,20-nonanor-4-oxa-4,8-inter-m-phenylene PGI2] | 0.19 (≈ 0.507 nM) | 9.74 | 880 | 330 | 1.4 | 0.094 |
| O=C(O)COc1cccc2c1O[C@H]1C[C@@H](O)[C@H](/C=C/[C@@H](O)CCC3CCCCC3)[C@@H]21 (relative stereo) [Compound 244, 17-cyclohexyl-2,5,6,7,18,19,20-heptanor-4-oxa-4,8-inter-m-phenylene PGI2] | 28 (≈ 67.2 nM) | 8.52 | > 10000 | 3500 | 3.9 | 0.47 |
| O=C(O)COc1cccc2c1O[C@H]1C[C@@H](O)[C@H](/C=C/[C@@H](O)CCc3ccccc3)[C@@H]21 (relative stereo) [Compound 263, 17-phenyl-2,5,6,7,18,19,20-heptanor-4-oxa-4,8-inter-m-phenylene PGI2] | 3.4 (≈ 8.28 nM) | 13.7 | 1300 | 580 | 42 | 0.23 |
| O=C(O)COc1cccc2c1O[C@H]1C[C@@H](O)[C@H](/C=C/[C@@H](O)c3cccc(F)c3)[C@@H]21 (relative stereo) [Compound 274, 15-(m-fluorophenyl)-2,5,6,7,16,17,18,19,20-nonanor-4-oxa-4,8-inter-m-phenylene PGI2] | 1.35 (≈ 3.37 nM) | 9.6 | 880 | 260 | 12 | 0.053 |
| O=C(O)COc1cccc2c1O[C@H]1C[C@@H](O)[C@H](/C=C/[C@@H](O)c3cccc(C(F)(F)F)c3)[C@@H]21 (relative stereo) [Compound 278, 15-(m-trifluoromethylphenyl)-2,5,6,7,16,17,18,19,20-nonanor-4-oxa-4,8-inter-m-phenylene PGI2] | 0.79 (≈ 1.75 nM) | 3.1 | 1100 | 630 | 6.9 | 0.11 |
| O=C(O)COc1cccc2c1O[C@H]1C[C@@H](O)[C@H](/C=C/[C@@H](O)c3ccccc3Cl)[C@@H]21 (relative stereo) [Compound 281, 15-(o-chlorophenyl)-2,5,6,7,16,17,18,19,20-nonanor-4-oxa-4,8-inter-m-phenylene PGI2] | 0.82 (≈ 1.97 nM) | 2.4 | 500 | 460 | 10 | 0.14 |
| O=C(O)COc1cccc2c1O[C@H]1C[C@@H](O)[C@H](/C=C/[C@@H](O)c3ccc(Cl)cc3)[C@@H]21 (relative stereo) [Compound 289, 15-(p-chlorophenyl)-2,5,6,7,16,17,18,19,20-nonanor-4-oxa-4,8-inter-m-phenylene PGI2] | 0.74 (≈ 1.78 nM) | 4 | 970 | 430 | 17 | 0.084 |
| CC#CCC(C)[C@H](O)/C=C/[C@@H]1[C@H]2c3cccc(OCC(=O)O)c3O[C@H]2C[C@H]1O (relative stereo) [Compound 321, 16-Methyl-2,5,6,7-tetranor-4-oxa-18,18,19,19-tetradehydro-4,8-inter-m-phenylene PGI2] | 0.33 (≈ 0.854 nM) | 0.5 | 320 | 120 | 41 | 0.22 |

The next lines start with results.

| IC50 (platelet aggregation) [ng/mL] | SMILES | ED50 (corpus of stomach) [µg/kg] | ED50 (gastric acid secretion [1]; [4]) [µg/kg] | ED50 (gastric acid secretion [1]; [5]) [µg/kg] | Inhibiting effect of gastric acid secretion, Relative effect (PGE2 = 1) (gastric acid secretion [2]) | ED (25 mmHg) [3] [µg/kg] |
| --- | --- | --- | --- | --- | --- | --- |
| 0.26 (≈ 0.669 nM) | O=C(O)COc1cccc2c1O[C@H]1C[C@@H](O)[C@H](/C=C/[C@@H](O)C3CCCCC3)[C@@H]21 (relative stereo) [Compound 234, 15-cyclohexyl-2,5,6,7,16,17,18,19,20-nonanor-4-oxa-4,8-inter-m-phenylene PGI2] | 12.4 | 880 | 86 | 4.1 | 0.34 |
| 12 (≈ 29.8 nM) | O=C(O)COc1cccc2c1O[C@H]1C[C@@H](O)[C@H](/C=C/[C@@H](O)CC3CCCCC3)[C@@H]21 (relative stereo) [Compound 241, 16-cyclohexyl-2,5,6,7,17,18,19,20-octanor-4-oxa-4,8-inter-m-phenylene PGI2] | 8.17 | 2800 | 1800 | 2.1 | 0.083 |
| 0.088 (≈ 0.23 nM) | O=C(O)COc1cccc2c1O[C@H]1C[C@@H](O)[C@H](/C=C/[C@@H](O)c3ccccc3)[C@@H]21 (relative stereo) [Compound 256, 15-phenyl-2,5,6,7,16,17,18,19,20-nonanor-4-oxa-4,8-inter-m-phenylene PGI2] | 3.2 | 110 | 44 | 7.8 | 0.1 |
| 3.5 (≈ 8.83 nM) | O=C(O)COc1cccc2c1O[C@H]1C[C@@H](O)[C@H](/C=C/[C@@H](O)Cc3ccccc3)[C@@H]21 (relative stereo) [Compound 260, 16-phenyl-2,5,6,7,17,18,19,20-octanor-4-oxa-4,8-inter-m-phenylene PGI2] | 51.4 | 4500 | 5200 | 13 | 0.98 |
| 0.23 (≈ 0.552 nM) | O=C(O)COc1cccc2c1O[C@H]1C[C@@H](O)[C@H](/C=C/[C@@H](O)c3cccc(Cl)c3)[C@@H]21 (relative stereo) [Compound 285, 15-(m-chlorophenyl)-2,5,6,7,16,17,18,19,20-nonanor-4-oxa-4,8-inter-m-phenylene PGI2] | 3.5 | 1200 | 880 | 4.1 | 0.055 |
| 72 (≈ 171 nM) | CCCOCC(C)(C)[C@H](O)/C=C/[C@@H]1[C@H]2c3cccc(OCC(=O)O)c3O[C@H]2C[C@H]1O (relative stereo) [Compound 309, 16,16-Dimethyl-20a-homo-2,5,6,7-tetranor-4,18-dioxa-4,8-inter-m-phenylene PGI2] | 7.47 | 2010 | 805 | 33 | 0.3 |

From patent US4775692A, “2,5,6,7-tetranor-4,8-inter-m-phenylene PGI2 derivatives” (Toray Industries, Inc., priority 1986, dated 1988)
